Test results reported in patent publication US10577395B2 (priority 2014, dated 2020).
Marks after values point to notes of the source that are not given here.

How the values were obtained:
[1] = cited from earlier work; for ligand, Ka (M^−1), 11, Y = NH: association constant, ligand 11 (Y = NH)
[2] = Binding of model ligand 11 (Y = NH), association constant Ka; details: ratio of Ka for ligand 11 to ligand 12
[3] = association constant, ligand 12 (Y = O); cited from earlier work
[4] = tested on: vancomycin-resistant Enterococcus faecalis (VanA VRE, BM4166); details: E. faecalis (BM4166, VanA VRE); earlier studies; cited from earlier work
[5] = tested on: vancomycin-resistant Enterococcus faecalis (VanA VRE, BM4166); test: microbe, parasite or virus in culture; format: cell-based; details: E. faecalis (BM4166, VanA VRE); tested herein alongside Compounds 1-6
Description: Assays were carried out following the methods of Clinical and Laboratory Standards Institute; Methods for Dilution Antimicrobial Susceptibility Tests for Bacteria That Grow Aerobically; Approved Standard, […].; CLSI document M07-A8; Clinical and Laboratory Standards Institute: Wayne, Pa., 2009.
This diluted bacterial stock solution was then inoculated into a well of a V-shaped 96-well glass coated microtiter plate, supplemented with serial diluted aliquots of the antibiotic solution DMSO (4 μL), to achieve a total assay volume of 0.1 mL. The plate was then incubated at 37° C. for 18 hours, after which minimal inhibitory concentrations (MICs) were determined by monitoring the cell growth (observed as a pellet) in the wells. The lowest concentration of antibiotic (in μg/mL) capable of eliminating the cell growth in the wells is reported as the MIC.

Row | Compound | ligand, Ka (M^−1), 11, Y = NH [1] | Ka(11/12) [2] | ligand, Ka (M^−1), 12, Y = O [3] | VanA MIC [4] | binding affinity for both target ligands relative to vancomycin aglycon with D-Ala-D-Ala ([1]; D-Ala-D-Ala and D-Ala-D-Lac) | VanA MIC, μg/mL [5]
1 | CN[C@H](CC(C)C)C(=O)N[C@H]1C(=O)N[C@@H](CC(N)=O)C(=O)N[C@H]2C(=O)N[C@H]3C(=O)N[C@H](C(=O)N[C@H](C(=O)O)c4cc(O)cc(O)c4-c4cc3ccc4O)[C@H](O)c3ccc(c(Cl)c3)Oc3cc2cc(c3O)Oc2ccc(cc2Cl)[C@H]1O [Compound 7, vancomycin aglycon] | 170000 M⁻¹ | 1400 | 120 M⁻¹ | 640 mg/L | – | –
2 | CN[C@H](CC(C)C)C(=O)N[C@H]1C(=O)N[C@@H](CC(N)=O)C(=O)N[C@H]2C(=S)NC3C(=O)N[C@H](C(=O)N[C@H](C(=O)O)c4cc(O)cc(O)c4-c4cc3ccc4O)[C@H](O)c3ccc(c(Cl)c3)Oc3cc2cc(c3O)Oc2ccc(cc2Cl)[C@H]1O [Compound 8, [Ψ[C(═S)NH]Tpg^4]vancomycin aglycon] | 170 M⁻¹ | – | 11 M⁻¹ | >640 mg/L | – | –
3 | CN[C@H](CC(C)C)C(=O)N[C@H]1C(=O)N[C@@H](CC(N)=O)C(=O)N[C@H]2C(=N)NC3C(=O)N[C@H](C(=O)N[C@H](C(=O)O)c4cc(O)cc(O)c4-c4cc3ccc4O)[C@H](O)c3ccc(c(Cl)c3)Oc3cc2cc(c3O)Oc2ccc(cc2Cl)[C@H]1O [Compound 9, [Ψ[C(═NH)NH]Tpg^4]vancomycin aglycon] | 73000 M⁻¹ | 1.05 | 69000 M⁻¹ | – | ≤ 2 fold | 1^b μg/mL
4 | [Ψ[CH2NH]Tpg^4]vancomycin aglycon [Compound 10] | 4800 M⁻¹ | 0.9 | 5200 M⁻¹ | 31 mg/L | – | –
